Read-outs that look alike come from different tables or passages of the source.
How the values were obtained:
[1] = biological target: JAK2 kinase (V617F mutant type, JAK2^V617F) (Homo sapiens (Human), UniProt O60674, V617F); assay: HTRF assay for enzymatic activity (IC50), JAK2 V617F mutant type; type: biochemical; details: ATP at Km, 120 min, 23 °C
Procedure: (§1) 1. Assay for Enzymatic Activity (IC50) of Compounds
(§2) A testing platform for kinase activity of JAK2 (wild type and V617F mutant type) was established based on Homogeneous Time-Resolved Fluorescence (HTRF) assay, and the activities of the compounds were tested using the platform. The compounds were subjected to three-fold gradient dilutions with 100% DMSO with a starting concentration of 1 mM (11 dilutions in total). 4 μL of each dilution was added to 96 μL of reaction buffer (50 mM HEPES, pH 7.4, 10 mM MgCl2, 1 mM EGTA, 0.01% Tween-20, 0.005% BAS, 2 mM DTT) and mixed homogeneously. […] The mixture was mixed homogeneously by centrifugation. […] The plate was incubated in the incubator for 1 hr, and then the fluorescence values were read on Envision (available from PerkinElmer). […] The enzymatic activity was representd by a ratio of the two readout at the two emission wavelengths. The enzymatic activity for each compound was tested at 11 concentrations, and IC50 values of the compounds were obtained by calculating the data using GraFit6.0 software (Erithacus Software). 2. Assay for cell proliferation activity (IC50) of compounds

[2] = biological target: JAK2 kinase (wild type, JAK2^WT) (Homo sapiens (Human), UniProt O60674); assay: HTRF assay for enzymatic activity (IC50), JAK2 wild type; type: biochemical; details: ATP at Km, 120 min, 23 °C
Sequence of JAK2 kinase (wild type, JAK2^WT) (O60674 whole entry): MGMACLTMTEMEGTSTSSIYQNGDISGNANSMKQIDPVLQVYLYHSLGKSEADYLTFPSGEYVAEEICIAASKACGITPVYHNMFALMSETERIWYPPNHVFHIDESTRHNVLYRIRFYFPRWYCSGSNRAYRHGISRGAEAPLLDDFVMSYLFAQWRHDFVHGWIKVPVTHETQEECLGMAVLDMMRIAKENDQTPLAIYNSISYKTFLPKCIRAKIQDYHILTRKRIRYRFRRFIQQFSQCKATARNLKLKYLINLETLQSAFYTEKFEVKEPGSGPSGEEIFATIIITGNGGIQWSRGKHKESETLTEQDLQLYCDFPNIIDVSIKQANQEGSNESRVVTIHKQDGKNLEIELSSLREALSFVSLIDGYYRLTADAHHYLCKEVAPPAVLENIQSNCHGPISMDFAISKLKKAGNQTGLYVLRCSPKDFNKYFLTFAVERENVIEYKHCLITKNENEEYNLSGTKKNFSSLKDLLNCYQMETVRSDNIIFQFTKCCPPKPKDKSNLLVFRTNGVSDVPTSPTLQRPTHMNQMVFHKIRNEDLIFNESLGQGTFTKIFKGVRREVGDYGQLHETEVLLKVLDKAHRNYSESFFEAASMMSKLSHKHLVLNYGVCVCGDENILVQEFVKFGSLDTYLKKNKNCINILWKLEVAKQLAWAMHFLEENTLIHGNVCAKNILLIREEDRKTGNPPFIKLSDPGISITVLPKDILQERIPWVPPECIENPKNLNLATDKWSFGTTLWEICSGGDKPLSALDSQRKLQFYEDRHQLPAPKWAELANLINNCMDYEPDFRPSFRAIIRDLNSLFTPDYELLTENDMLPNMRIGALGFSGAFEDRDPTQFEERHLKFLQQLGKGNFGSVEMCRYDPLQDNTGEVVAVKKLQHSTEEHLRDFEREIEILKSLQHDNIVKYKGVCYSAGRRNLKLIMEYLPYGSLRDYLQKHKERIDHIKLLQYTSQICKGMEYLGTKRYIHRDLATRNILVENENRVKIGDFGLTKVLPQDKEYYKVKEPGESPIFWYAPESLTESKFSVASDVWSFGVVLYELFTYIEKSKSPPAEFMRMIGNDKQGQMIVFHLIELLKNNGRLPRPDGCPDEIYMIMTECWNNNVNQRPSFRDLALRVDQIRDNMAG
Procedure: as §1, §2

in vivo = details: male, Sprague-Dawley, rat, plasma, po, 5 mg/kg
Procedure: The rats were allocated with three rats per group, and separately orally administered the suspension of a sample to be tested (5 mg/kg or 15 mg/kg) by single intragastric administration. […] After the animals were narcotized with isoflurane using an anaesthesia machine for small animals, 0.3 mL of whole blood was drawn from fundus venous plexus, and placed in a heparin anticoagulant tube. At 4° C., the sample was centrifuged at 4000 rpm for 5 min, and plasma was transferred to a centrifuge tube and preserved at −80° C. until the analysis was started. The sample in plasma was extracted by the protein precipitation method, and the extract liquid was analyzed by LC/MS/MS.

HEL (JAK2^V617F) cells = assay: Cell proliferation assay (CellTiter-Blue, 72 hrs); type: cell-based; details: Homo sapiens; 72 hrs of treatment
Procedure: In the tests of compounds, HEL cells were plated in a 96-well plate (Corning) at a density of 3000 cells/195 μL per well. The compounds were subjected to three-fold gradient dilutions with a starting concentration of 10 mM (11 dilutions in total). […] 5 μL of the resulting liquid was then added to 195 μL of the cell culture medium (the final concentration in DMSO is 0.1%, v/v). After 72 hrs of treatment, 35 μL of CellTiter-Blue® (available from Promega) was added. The fluorescent signals were detected on Flex Station3 (Molecular Devices) in accordance with the protocols described in the instructions. The IC50 values of the compounds in inhibiting cell proliferation were calculated using GraphPad Prism 5.0.

[3] = 0.5% MC, FDA pharmacology review, cited from earlier work
[4] = rats, 30 mg/kg PO; FDA pharmacology review; cited from earlier work
[5] = dogs, male, FDA pharmacology review, cited from earlier work

Sequence of JAK2 kinase (V617F mutant type, JAK2^V617F) (O60674 whole entry V617F): as the sequence (O60674 whole entry) above, with V617F counted along it

N#CCC(C1CCCC1)n1cc(-c2ncnc3[nH]ccc23)c(N)n1 (centres unmarked) [Example 1, 3-[3-amino-4-(7H-pyrrolo[2,3-d]pyrimidin-4-yl)-1H-pyrazol-1-yl]-3-cyclopentylpropanenitrile]
IC50 [1]: < 20 nM
IC50 [2]: < 20 nM

CCNc1nn(C(CC#N)C2CCCC2)cc1-c1ncnc2[nH]ccc12 (centres unmarked) [Example 7, 3-[3-ethylamino-4-(7H-pyrrolo[2,3-d]pyrimidin-4-yl)-1H-pyrazol-1-yl]-3-cyclopentylpropanenitrile]
AUC(0-inf) (in vivo): 20 ng·h/mL
Cmax (in vivo): 13.5 ng/mL
Tmax (in vivo): 19.8 min
half-life (in vivo): 30 min
IC50 [1]: < 20 nM
IC50 (HEL (JAK2^V617F) cells): < 200 nM
IC50 [2]: < 20 nM

N#CC[C@H](C1CCCC1)n1cc(-c2ncnc3[nH]ccc23)cn1 [Ruxolitinib Phosphate]
AUCINF—obs ([3]; female rats, oral 15 mg/kg): 336 ng·h/mL
Cmax ([3]; female rats, oral 15 mg/kg): 267 ng/mL
T1/2 ([3]; female rats, oral 15 mg/kg): 119 min
Tmax ([3]; female rats, oral 15 mg/kg): 30 min
AUCINF—obs ([3]; male rats, oral 5 mg/kg): 3.33 ng·h/mL
Cmax ([3]; male rats, oral 5 mg/kg): 4.69 ng/mL
Tmax ([3]; male rats, oral 5 mg/kg): 30 min

N#CC[C@H](C1CCCC1)n1cc(-c2ncnc3[nH]ccc23)cn1 [Ruxolitinib]
AUCINFobs [4]: 1345 ng·h/mL
Cmax [4]: 1143 ng/mL
Tmax [4]: 30 min
t1/2 [4]: 73.2 min
AUCINF—obs ([5]; IV 5 mg/kg): 13776 ng·h/mL
Cl_obs ([5]; IV 5 mg/kg): 8 mL/min/kg
Vss_obs ([5]; IV 5 mg/kg): 1.1 L/kg
t1/2 ([5]; IV 5 mg/kg): 150 min
AUCINF—obs ([5]; PO 10 mg/kg): 15716 ng·h/mL
Cmax ([5]; PO 10 mg/kg): 3519 ng/mL
F ([5]; PO 10 mg/kg): 57%
Tmax ([5]; PO 10 mg/kg): 120 min
t1/2 ([5]; PO 10 mg/kg): 132 min
